Target: ATP-dependent translocase ABCB1 (Mus musculus, UniProt P21447)
Experiment: TP_TRANSPORTER: transepithelial transport (basal to apical) in Mdr1a-expressing LLC-PK1 cells
Type: functional, cell-based
Conditions: pig

Sequence of ATP-dependent translocase ABCB1 (P21447 whole entry): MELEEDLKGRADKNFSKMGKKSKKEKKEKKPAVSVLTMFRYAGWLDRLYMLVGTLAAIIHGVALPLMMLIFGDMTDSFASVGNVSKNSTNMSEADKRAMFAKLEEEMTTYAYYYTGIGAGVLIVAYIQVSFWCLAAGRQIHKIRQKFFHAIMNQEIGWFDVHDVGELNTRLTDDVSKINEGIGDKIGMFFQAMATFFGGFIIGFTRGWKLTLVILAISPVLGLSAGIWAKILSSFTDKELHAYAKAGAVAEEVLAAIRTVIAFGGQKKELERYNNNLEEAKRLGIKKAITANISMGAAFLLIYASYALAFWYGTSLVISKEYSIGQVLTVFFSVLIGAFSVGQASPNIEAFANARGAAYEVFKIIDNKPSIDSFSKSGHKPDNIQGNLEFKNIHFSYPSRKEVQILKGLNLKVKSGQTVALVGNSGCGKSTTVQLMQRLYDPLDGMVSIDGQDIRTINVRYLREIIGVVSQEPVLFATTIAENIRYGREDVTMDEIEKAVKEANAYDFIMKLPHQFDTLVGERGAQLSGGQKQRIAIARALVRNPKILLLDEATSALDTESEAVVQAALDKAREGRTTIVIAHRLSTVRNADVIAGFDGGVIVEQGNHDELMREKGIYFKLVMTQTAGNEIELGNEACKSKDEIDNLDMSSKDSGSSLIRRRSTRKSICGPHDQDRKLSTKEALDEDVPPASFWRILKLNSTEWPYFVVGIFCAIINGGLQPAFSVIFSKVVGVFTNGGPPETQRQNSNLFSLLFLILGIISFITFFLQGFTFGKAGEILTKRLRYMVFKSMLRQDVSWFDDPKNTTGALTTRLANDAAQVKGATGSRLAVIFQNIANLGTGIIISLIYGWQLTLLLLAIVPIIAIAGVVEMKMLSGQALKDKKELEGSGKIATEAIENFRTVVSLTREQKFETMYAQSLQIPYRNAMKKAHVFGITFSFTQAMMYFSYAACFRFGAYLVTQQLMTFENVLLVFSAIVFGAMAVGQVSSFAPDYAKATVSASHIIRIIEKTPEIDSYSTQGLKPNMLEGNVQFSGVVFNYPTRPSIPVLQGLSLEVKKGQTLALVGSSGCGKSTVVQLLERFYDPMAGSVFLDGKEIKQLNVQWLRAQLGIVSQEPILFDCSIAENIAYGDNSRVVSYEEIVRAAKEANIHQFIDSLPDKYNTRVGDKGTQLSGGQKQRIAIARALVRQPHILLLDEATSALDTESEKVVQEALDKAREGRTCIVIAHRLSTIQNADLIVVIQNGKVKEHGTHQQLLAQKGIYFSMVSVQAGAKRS

Structure (SMILES)	Activity
CCc1c2c(nc3ccc(OC[C@@H]4O[C@H](C(=O)O)[C@@H](O)[C@H](O)[C@H]4O)cc13)-c1cc3c(c(=O)n1C2)COC(=O)[C@]3(O)CC	substrate [+]
CCc1c2c(nc3ccc(O)cc13)-c1cc([C@@](O)(CC)C(=O)O)c(CO)c(=O)n1C2	substrate [+]
CCc1c2c(nc3ccc(OC(=O)N4CCC(N5CCCCC5)CC4)cc13)-c1cc([C@@](O)(CC)C(=O)O)c(CO)c(=O)n1C2	substrate [+]
CCc1c2c(nc3ccc(OC(=O)N4CCC(N5CCCCC5)CC4)cc13)-c1cc3c(c(=O)n1C2)COC(=O)[C@]3(O)CC [IRINOTECAN]	substrate [+]

— ChEMBL document CHEMBL2074218, “Effect of P-glycoprotein modulator, cyclosporin A, on the gastrointestinal excretion of irinotecan and its metabolite SN-38 in rats” (Pharm Res, 2003)
